In patent US5977144A (priority 1997, dated 1999):
Entries after “also recorded” stand apart in the source; their conditions may differ.

Key:
[1] = tested on: PC12 cells; assay type: cell-based
Method: PC12 cell-culture methods were modified from Greene and Tischler (1976). Cells were plated at 30-40% confluence and grown in Dulbecco's Modified Eagle Medium containing 10% heat-inactivated horse serum, 5% fetal bovine serum, 100 units/ml penicillin, 100 μg/ml streptomycin and 0.5 mM 1-glutamine. Cultures were maintained at 37° C., […] /6% CO2 and 90-92% humidity in culture plates pre-coated with poly-1lysine (10 g/L). Cultures were maintained for 7 days in serum-supplemented medium to which 100 ng/ml rat 2.5S NGF was added at day 1. On day 7, conditioned medium was replaced serum-free medium containing specified drugs. Four days later, cell density was estimated using the NIH Image program version 1.47 and number of neurite-expressing cells counted manually in blind fashion as described previously (Martin et al., 1994). A Nikon inverted microscope (100× magnification) was attached to a Mac II computer via a monochrome video camera (Cohu, Inc., San Diego, Calif.). Four random areas were counted per plate and there were 4 plates per treatment group, unless otherwise indicated. Neurites were defined as processes at least 2× the length of the perikaryon. To assess the reliability of the image analyses, a reticle was used for direct quantification of cells in the same view as the one analyzed in random samples.
PC12 cells were differentiated for 1 week with NGF. Drugs were administered for the 4 day interval after removal of serum and NGF. Neuites were counted and expressed as the mean±SEM of at least 3 plates/group.

[2] = tested on: nucleus basalis lesioned rats; experiment: Passive avoidance behavior in nucleus basalis lesioned rats; assay type: in vivo, rat; conditions: for passive avoidance behavior (in words): nucleus basalis lesioned rats
Method: Passive avoidance behavior was measured in nucleus basalis lesioned rats after intraperitoneal (IP) injections of drugs (base weight) or 0.9% saline diluent. For lesions, male 5 month old Sprague Dawley rats were anesthetized with 30 mg/kg sodium pentobarbital (IP) and then infused bilaterally with 1 μl of 5 μg/μl ibotenic acid in phosphate buffered saline, pH 7.4, into the nucleus basalis as described previously (17). Infusion coordinates were anterior 7.0 mm, lateral 2.6 mm and vertical 6.5 mm according to Paxinos and Watson (Paxinos and Watson, 1986).
Following surgery, animals were returned to their individual home cages and fed semi-solid mash made from Purina Rat Chow for several days. One month later, animals were trained in a two chamber passive avoidance paradigm. Fifteen min after IP drug injection, they were placed in the lit compartment, and allowed to enter the dark adjoining chamber. Animals that entered the second chamber received a mild foot shock (0.8 mA) for 1 sec. Rats were tested for latency 24 hr later for up to 5 min; this test also began 15 min after injection. Statistical analyses utilized rank order nonparametric comparisons of latencies.

[3] = biological target: rat alpha4beta2 receptor (Rattus norvegicus, UniProt P09483+P12390); experiment: Activation of alpha4beta2 receptors expressed in Xenopus oocytes; assay type: cell-based; conditions: read-out: alpha4beta2 activation: % response observed with 10 μM acetylcholine
[4] = tested on: rat; conditions: in vivo
Method: Eleven male Sprague-Dawley rats were first trained to press the left lever in a two lever operant conditioning chamber. They had limited access to food for 23 hours prior to the first training session and then received 20 grams of food for the remainder of the study. Once subjects reliably pressed the left lever, a catheter was surgically implanted into the right jugular vein. The catheter consisted of three separate pieces of tubing, a 37 mm length of silicon rubber tubing which entered the circulatory system (Silastic Medical Grade tubing), a 65 mm length of polyethylene tubing (Intramedic, PE10) and a 170 mm length of polyethylene tubing with the same internal diameter (Intramedic, PE20). The catheter exited between the scapulae and could be hooked up to a swivel which itself was connected to a pneumatic syringe. […] Once subjects had recovered from surgery they were trained to complete a fixed ratio 2 schedule (FR 2) to activate the pneumatic syringe. […] Each daily experimental session lasted 50 minutes. After several sessions under these conditions, subjects received an intraperitoneal (IP) injection of physiological saline (1 ml/kg), 15 min prior to the start of the self-administration session. The next day subjects were IP injected with 8 mg/kg of GTS-21, also 15 minutes before the beginning of the session.

[5] = tested on: rat; experiment: Focal ischemia infarct size in rats; assay type: in vivo
Method: FIG. 3. […] Rats received a 30 minute ischemia attack through tying of their common carotid; the amount of cell death (proportional to Infarct Size) was determined 24 hours later. Some animals received the benzylidene-anabaseine compound DMXB (1 mg/kg IP, salt weight) 1 hour before ligation, or the nicotinic antagonist mecamylamine (0.5 mg/kg IP), or both mecamylamine and DMXB, or DMXB 5 minutes after the ligation.
Male Sprague Dawley albino male rats (250-300 g) were anesthetized with a subcutaneous injection of ketamine, xylazine, and acepromazine (3:3:1 mixture, 0.7 cc/kg). Atropine (0.4 mg/kg IP) was injected several min prior to dissection of the carotid artery from the vagus. The internal carotid artery (ICA) was dissected until its proximal bifurcation into the terminal ICA and pterygopalatine arteries were clearly defined. The pterygopalatine artery was clipped parallel to and flush with the terminal ICA. Another clip was applied to the common carotid artery (CCA). The distal aspect of the external carotid artery (ECA) was coagulated and a straight aneurysm clip was applied 4 mm distal to the proximal ICA bifurcation. A suture was passed through the arteriotomized ECA stump into the ICA until the tip was resting against the aneurysm clip. The suture was removed 30 min later, with body temperature maintained between 36.5-37.5° C. The ECA stump was coagulated with bipolar electrocautery. Clips were removed and the wound was irrigated with saline prior to suturing.
Rats were euthanised 24 hours post-infarction and their brains removed and sectioned coronally (2 mm). Sections were placed into a 2% solution of 2,3,5-triphyenyl-tetrazolium cholide (Sigma Chemical Co., St. Louis. Mo.) for 20 minutes at 37° C. The sections were removed to a petri dish and covered with 10% formaldehyde solution. The outline function of the NIH Image computer program (version 1.47) was used to estimate the infarcted and total brain areas for each section. Infarct size was calculated as percent of total brain area.

[6] = tested on: rat primary neocortical neurons; assay type: cell-based
[7] = tested on: NB Lesion; experiment: NB Lesion (Table 4); assay type: in vivo
[8] = biological target: rat alpha7 receptor (Rattus norvegicus, UniProt Q05941); conditions: cited from earlier work
Sequence of rat alpha7 receptor (Q05941 23-502): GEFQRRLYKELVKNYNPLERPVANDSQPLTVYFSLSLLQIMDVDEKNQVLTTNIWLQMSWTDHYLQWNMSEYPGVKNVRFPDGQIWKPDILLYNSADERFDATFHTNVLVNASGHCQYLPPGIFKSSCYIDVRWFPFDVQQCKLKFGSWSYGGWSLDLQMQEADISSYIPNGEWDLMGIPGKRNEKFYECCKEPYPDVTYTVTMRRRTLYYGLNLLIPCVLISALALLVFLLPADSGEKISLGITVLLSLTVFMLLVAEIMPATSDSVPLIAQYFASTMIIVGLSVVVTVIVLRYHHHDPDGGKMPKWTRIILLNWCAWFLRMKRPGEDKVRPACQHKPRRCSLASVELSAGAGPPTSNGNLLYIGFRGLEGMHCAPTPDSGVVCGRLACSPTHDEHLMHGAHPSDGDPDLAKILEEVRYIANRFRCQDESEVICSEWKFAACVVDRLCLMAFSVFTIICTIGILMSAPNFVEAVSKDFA

Sequence of rat alpha4beta2 receptor (P09483 31-630): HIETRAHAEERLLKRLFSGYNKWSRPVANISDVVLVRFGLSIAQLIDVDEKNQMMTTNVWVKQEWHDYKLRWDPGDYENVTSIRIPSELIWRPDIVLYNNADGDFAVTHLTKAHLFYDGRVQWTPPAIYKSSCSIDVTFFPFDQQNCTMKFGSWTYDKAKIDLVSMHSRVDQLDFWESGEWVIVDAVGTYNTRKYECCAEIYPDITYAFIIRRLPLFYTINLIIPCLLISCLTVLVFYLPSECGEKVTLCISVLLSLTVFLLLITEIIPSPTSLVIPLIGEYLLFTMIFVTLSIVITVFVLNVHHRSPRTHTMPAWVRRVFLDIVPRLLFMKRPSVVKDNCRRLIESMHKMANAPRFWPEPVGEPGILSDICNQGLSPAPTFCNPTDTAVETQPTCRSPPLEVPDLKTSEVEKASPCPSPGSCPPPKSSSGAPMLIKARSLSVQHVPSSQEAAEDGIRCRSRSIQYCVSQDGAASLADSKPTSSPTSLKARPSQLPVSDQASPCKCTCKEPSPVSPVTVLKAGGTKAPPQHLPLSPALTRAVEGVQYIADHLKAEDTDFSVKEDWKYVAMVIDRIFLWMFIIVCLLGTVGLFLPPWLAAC
Sequence of rat alpha4beta2 receptor (P12390 25-500): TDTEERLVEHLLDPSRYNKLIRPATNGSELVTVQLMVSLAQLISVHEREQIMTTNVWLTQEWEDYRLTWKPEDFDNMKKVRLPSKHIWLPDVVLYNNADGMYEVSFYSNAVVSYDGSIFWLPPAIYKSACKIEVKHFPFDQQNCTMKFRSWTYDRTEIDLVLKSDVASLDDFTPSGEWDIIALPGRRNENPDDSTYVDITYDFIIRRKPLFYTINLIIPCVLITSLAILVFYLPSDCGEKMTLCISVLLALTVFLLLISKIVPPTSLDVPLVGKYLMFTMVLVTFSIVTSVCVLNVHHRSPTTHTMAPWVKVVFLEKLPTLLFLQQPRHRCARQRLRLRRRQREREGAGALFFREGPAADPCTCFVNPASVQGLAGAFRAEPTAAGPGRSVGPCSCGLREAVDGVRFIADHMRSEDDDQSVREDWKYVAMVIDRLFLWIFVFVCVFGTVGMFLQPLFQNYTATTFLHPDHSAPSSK

| Structure (SMILES) | neurite protection during NGF-deprivation (in words) ([1]; 10 μM) | Neurite Counts ([1]; 10 μM (NGF 100 ng/ml), 4 days after removal of serum and NGF, mean±SEM, * p<0.05) | effective dose-response range, upper end ([2]; IP) | passive avoidance behavior (in words) ([2]; IP) | passive avoidance behavior (in words) ([2]; IP, listed as 2MeOCA) | passive avoidance behavior (in words) ([2]; IP, listed as trans-3(2-methoxy-cinnamylidene) anabaseine) | passive avoidance behavior (in words) ([2]; IP, listed as trans-3-(2-methoxycinnamylidene) anabaseine) | minimal effective dose ([2]; Rattus norvegicus, ip, read-out: effective dose-response range, lower end) [mg/kg] | Emax [3] [%] | nicotine self-administration (in words) [4] | protection against infarct / cell loss, given before ischemia (in words) ([5]; 1 mg/kg IP before ischemia) | infarct size (mean value) ([5]; coronal section 5 mm posterior to frontal pole, saline 28%) [%] | protection against infarct, given during or after start of ischemia (in words) ([5]; during 30 min ischemic insult) | protection against glutamate, concomitant (in words) ([6]; 10 μM, with 1 mM glutamate) | protection against NMDA receptor-mediated toxicity (in words) ([6]; 24 hr prior to glutamate or NMDA) | effect on kainate-induced neurotoxicity (in words) ([6]; kainate) | NB Lesion [7] | α7 agonist activity (in words) ([8]; background/literature) | selectivity α7 over α4β2 / other nicotinic subtypes (in words) ([8]; literature) | activity of ACh at α7 receptors ([8]; partial agonist) |
| --- | --- | --- | --- | --- | --- | --- | --- | --- | --- | --- | --- | --- | --- | --- | --- | --- | --- | --- | --- | --- |
| COc1ccccc1/C=C/C=C1\CCCN=C1c1cccnc1 [2-MeOCA, E,E-3-(2-Methoxycinnamylidene)anabaseine] | Neither 2-MeOCA nor 4-MeOCA elicited neurite-protection | 213 ± 26 | at least 3 mg/kg | most potent | most potent performance-enhancing agent | less potent than the present compounds | high potency | < 0.1 | < 3 |  |  |  |  |  |  |  |  |  |  |  |
| COc1ccc(/C=C2\CCCN=C2c2cccnc2)c(OC)c1 [DMXB, 3-(2,4-Dimethoxybenzylidene) anabaseine] |  |  |  |  |  |  |  |  |  | inhibits nicotine self-administration; also recorded: less likely to self-administer nicotine | protected principally in the posterior infarct area; also recorded: protected against cell loss; also recorded: did not have as much cell loss | 19 | ineffective | not observed when administered concomitantly with glutamate | protects rat primary neocortical neurons against NMDA-receptor mediated excitotoxicity; also recorded: protected against NMDA receptor-mediated toxicity | no effect | + (≥ 0.5) | weak partial agonist activity | selective as an agonist for α7 versus other nicotinic receptor subtypes | about 20% |
